In PubChem BioAssay AID2060908 (Molecular Pharmacology Branch, DTP, NCI, 2025):
Blank lines part the entries; values can stand above or below the molecule they belong to.

System: 186277-243-T-J2-PDC complex spheroids, viability
Assay: Anticancer human tumor 186277-243-T-J2-PDC patient-derived colon adenocarcinoma cell line growth inhibition [RAS]
Conditions: for viability, T/C: stronger effect = lower value
Outline: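 Tumour cells grown as complex spheroids with HUVEC endothelial cells and mesenchymal stem cells, treated with RAS pathway inhibitor combinations. Each agent spans half-log steps from near clinical Cmax, or 10 microM where Cmax is unknown.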

[1] = curve of first compound, second compound 0.00316 µM
[2] = curve of first compound, second compound 0.01 µM
[3] = curve of first compound, second compound 0.0316 µM
[4] = curve of first compound, second compound 0.1 µM
[5] = curve of first compound, second compound 0.316 µM
[6] = curve of first compound, second compound 1 µM
[7] = second compound 0.00316 µM, first compound 0.0316 µM
[8] = second compound 0.00316 µM, first compound 0.1 µM
[9] = second compound 0.00316 µM, first compound 0.316 µM
[10] = second compound 0.00316 µM, first compound 1 µM
[11] = second compound 0.00316 µM, first compound 3.16 µM
[12] = second compound 0.00316 µM, first compound 10 µM
[13] = second compound 0.01 µM, first compound 0.0316 µM
[14] = second compound 0.01 µM, first compound 0.1 µM
[15] = second compound 0.01 µM, first compound 0.316 µM
[16] = second compound 0.01 µM, first compound 1 µM
[17] = second compound 0.01 µM, first compound 3.16 µM
[18] = second compound 0.01 µM, first compound 10 µM
[19] = second compound 0.0316 µM, first compound 0.0316 µM
[20] = second compound 0.0316 µM, first compound 0.1 µM
[21] = second compound 0.0316 µM, first compound 0.316 µM
[22] = second compound 0.0316 µM, first compound 1 µM
[23] = second compound 0.0316 µM, first compound 3.16 µM
[24] = second compound 0.0316 µM, first compound 10 µM
[25] = second compound 0.1 µM, first compound 0.0316 µM
[26] = second compound 0.1 µM, first compound 0.1 µM
[27] = second compound 0.1 µM, first compound 0.316 µM
[28] = second compound 0.1 µM, first compound 1 µM
[29] = second compound 0.1 µM, first compound 3.16 µM
[30] = second compound 0.1 µM, first compound 10 µM
[31] = second compound 0.316 µM, first compound 0.0316 µM
[32] = second compound 0.316 µM, first compound 0.1 µM
[33] = second compound 0.316 µM, first compound 0.316 µM
[34] = second compound 0.316 µM, first compound 1 µM
[35] = second compound 0.316 µM, first compound 3.16 µM
[36] = second compound 0.316 µM, first compound 10 µM
[37] = second compound 1 µM, first compound 0.0316 µM
[38] = second compound 1 µM, first compound 0.1 µM
[39] = second compound 1 µM, first compound 0.316 µM
[40] = second compound 1 µM, first compound 1 µM
[41] = second compound 1 µM, first compound 3.16 µM
[42] = second compound 1 µM, first compound 10 µM
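Note: spheroids exposed to compounds for 7 days before viability read.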

IC50 [1]: > 10000 nM
IC50 [2]: > 10000 nM
IC50 [3]: > 10000 nM
IC50 [4]: > 10000 nM
IC50 [5]: > 10000 nM
IC50 [6]: > 10000 nM
SMILES: Cc1nc(N2CCC3(CC2)COC(C)C3N)c(CO)nc1Sc1ccnc(N)c1Cl (configuration not stated) + C=CC(=O)N1CCN(c2nc(OCC3CCCN3C)nc3c(F)c(-c4nc(N)cc(C)c4C(F)(F)F)c(Cl)cc23)C(C)C1
viability, T/C [7]: 102%
viability, T/C [8]: 102%
viability, T/C [9]: 127%
viability, T/C [10]: 108%
viability, T/C [11]: 116%
viability, T/C [12]: 78.9%
viability, T/C [13]: 99.8%
viability, T/C [14]: 101%
viability, T/C [15]: 94.4%
viability, T/C [16]: 85.2%
viability, T/C [17]: 89.2%
viability, T/C [18]: 78.7%
viability, T/C [19]: 86.8%
viability, T/C [20]: 103%
viability, T/C [21]: 113%
viability, T/C [22]: 117%
viability, T/C [23]: 83.2%
viability, T/C [24]: 80.4%
viability, T/C [25]: 94%
viability, T/C [26]: 86.6%
viability, T/C [27]: 91.6%
viability, T/C [28]: 104%
viability, T/C [29]: 87.7%
viability, T/C [30]: 87.9%
viability, T/C [31]: 90.6%
viability, T/C [32]: 93.3%
viability, T/C [33]: 104%
viability, T/C [34]: 115%
viability, T/C [35]: 95.7%
viability, T/C [36]: 75.8%
viability, T/C [37]: 103%
viability, T/C [38]: 100%
viability, T/C [39]: 91.8%
viability, T/C [40]: 99.1%
viability, T/C [41]: 92.6%
viability, T/C [42]: 83.8%

IC50 [1]: 1860 nM
IC50 [2]: 1670 nM
IC50 [3]: 1800 nM
IC50 [4]: 1550 nM
IC50 [5]: 1810 nM
IC50 [6]: 1600 nM
SMILES: CCC(CC)c1cc(NC2CCC(N)C2)n2nccc2n1 (configuration not stated) + C=CC(=O)N1CCN(c2nc(OCC3CCCN3C)nc3c(F)c(-c4nc(N)cc(C)c4C(F)(F)F)c(Cl)cc23)C(C)C1
viability, T/C [7]: 91.8%
viability, T/C [8]: 97.2%
viability, T/C [9]: 89.5%
viability, T/C [10]: 117%
viability, T/C [11]: 7.95%
viability, T/C [12]: 0.31%
viability, T/C [13]: 78%
viability, T/C [14]: 103%
viability, T/C [15]: 76.2%
viability, T/C [16]: 84.2%
viability, T/C [17]: 7.63%
viability, T/C [18]: 0.49%
viability, T/C [19]: 86.4%
viability, T/C [20]: 93.5%
viability, T/C [21]: 93.8%
viability, T/C [22]: 115%
viability, T/C [23]: 5.08%
viability, T/C [24]: 0.32%
viability, T/C [25]: 93%
viability, T/C [26]: 102%
viability, T/C [27]: 77.5%
viability, T/C [28]: 79%
viability, T/C [29]: 3.18%
viability, T/C [30]: 0.31%
viability, T/C [31]: 81%
viability, T/C [32]: 94.3%
viability, T/C [33]: 117%
viability, T/C [34]: 109%
viability, T/C [35]: 2.74%
viability, T/C [36]: 0.35%
viability, T/C [37]: 102%
viability, T/C [38]: 91.8%
viability, T/C [39]: 101%
viability, T/C [40]: 82.9%
viability, T/C [41]: 2.87%
viability, T/C [42]: 0.37%

IC50 (curve of first compound, second compound 0.000949 µM): 4.76 nM
IC50 (curve of first compound, second compound 0.003 µM): < 3.16 nM
IC50 (curve of first compound, second compound 0.00949 µM): < 3.16 nM
IC50 (curve of first compound, second compound 0.03 µM): < 3.16 nM
IC50 (curve of first compound, second compound 0.0949 µM): < 3.16 nM
IC50 (curve of first compound, second compound 0.3 µM): < 3.16 nM
SMILES: Nc1ccn(C2OC(CO)C(O)C2(F)F)c(=O)n1 (configuration not stated) + CCn1c(-c2cc(N3CCN(C)CC3)cnc2C(C)OC)c2c3cc(ccc31)-c1csc(n1)CC(NC(=O)C1CC1C)C(=O)N1CCCC(N1)C(=O)OCC(C)(C)C2
viability, T/C (second compound 0.000949 µM, first compound 0.00316 µM): 73%
viability, T/C (second compound 0.000949 µM, first compound 0.01 µM): 8.42%
viability, T/C (second compound 0.000949 µM, first compound 0.0316 µM): 6.7%
viability, T/C (second compound 0.000949 µM, first compound 0.1 µM): 6.74%
viability, T/C (second compound 0.000949 µM, first compound 0.316 µM): 5.65%
viability, T/C (second compound 0.000949 µM, first compound 1 µM): 6.26%
viability, T/C (second compound 0.003 µM, first compound 0.00316 µM): 48%
viability, T/C (second compound 0.003 µM, first compound 0.01 µM): 6.35%
viability, T/C (second compound 0.003 µM, first compound 0.0316 µM): 5.14%
viability, T/C (second compound 0.003 µM, first compound 0.1 µM): 4.45%
viability, T/C (second compound 0.003 µM, first compound 0.316 µM): 4.85%
viability, T/C (second compound 0.003 µM, first compound 1 µM): 4.99%
viability, T/C (second compound 0.00949 µM, first compound 0.00316 µM): 12.7%
viability, T/C (second compound 0.00949 µM, first compound 0.01 µM): 6.13%
viability, T/C (second compound 0.00949 µM, first compound 0.0316 µM): 4.72%
viability, T/C (second compound 0.00949 µM, first compound 0.1 µM): 4.79%
viability, T/C (second compound 0.00949 µM, first compound 0.316 µM): 5.02%
viability, T/C (second compound 0.00949 µM, first compound 1 µM): 4.12%
viability, T/C (second compound 0.03 µM, first compound 0.00316 µM): 7.84%
viability, T/C (second compound 0.03 µM, first compound 0.01 µM): 5.11%
viability, T/C (second compound 0.03 µM, first compound 0.0316 µM): 4.83%
viability, T/C (second compound 0.03 µM, first compound 0.1 µM): 4.21%
viability, T/C (second compound 0.03 µM, first compound 0.316 µM): 4.75%
viability, T/C (second compound 0.03 µM, first compound 1 µM): 3.8%
viability, T/C (second compound 0.0949 µM, first compound 0.00316 µM): 5.28%
viability, T/C (second compound 0.0949 µM, first compound 0.01 µM): 4.76%
viability, T/C (second compound 0.0949 µM, first compound 0.0316 µM): 4.18%
viability, T/C (second compound 0.0949 µM, first compound 0.1 µM): 3.97%
viability, T/C (second compound 0.0949 µM, first compound 0.316 µM): 3.99%
viability, T/C (second compound 0.0949 µM, first compound 1 µM): 3.27%
viability, T/C (second compound 0.3 µM, first compound 0.00316 µM): 5.42%
viability, T/C (second compound 0.3 µM, first compound 0.01 µM): 4.54%
viability, T/C (second compound 0.3 µM, first compound 0.0316 µM): 3.86%
viability, T/C (second compound 0.3 µM, first compound 0.1 µM): 3.78%
viability, T/C (second compound 0.3 µM, first compound 0.316 µM): 3.81%
viability, T/C (second compound 0.3 µM, first compound 1 µM): 3.23%

SMILES: CCc1c2c(nc3ccc(O)cc13)-c1cc3c(c(=O)n1C2)COC(=O)[C@]3(O)CC
viability, T/C (compound 0.00949 µM): 71.8% [middle of 4 runs]
viability, T/C (compound 0.03 µM): 47.5% [middle of 4 runs]
viability, T/C (compound 0.0949 µM): 18.6% [middle of 4 runs]
viability, T/C (compound 0.3 µM): 15.9% [middle of 4 runs]

IC50 (compound alone, run of 06/10/2024): 160 nM [middle of 8 runs]
SMILES: C#Cc1c(F)ccc2cc(O)cc(-c3ncc4c(N5CC6CCC(C5)N6)nc(OCC56CCCN5CC(F)C6)nc4c3F)c12 (configuration not stated)
viability, T/C (compound 0.0316 µM): 70% [middle of 8 runs]
viability, T/C (compound 0.1 µM): 62.6% [middle of 8 runs]
viability, T/C (compound 0.316 µM): 32.4% [middle of 8 runs]
viability, T/C (compound 1 µM): 18.4% [middle of 8 runs]
viability, T/C (compound 3.16 µM): 12.2% [middle of 8 runs]
viability, T/C (compound 10 µM): 10.1% [middle of 8 runs]
